“Also recorded” adds a separate entry of the source. Where two headings read alike, the source gives them in different places.
How the values were obtained:
α5β3γ2 GABAA receptors = target: T1, α5β3γ2 GABAA receptors (Homo sapiens, UniProt P18507+P31644); experiment: Binding activity of test compounds on GABAAR: inhibition of [3H]Ro15-1788 binding, membranes of Ltk cells
T1 construct: membranes
T1 sequence (P31644 32-462): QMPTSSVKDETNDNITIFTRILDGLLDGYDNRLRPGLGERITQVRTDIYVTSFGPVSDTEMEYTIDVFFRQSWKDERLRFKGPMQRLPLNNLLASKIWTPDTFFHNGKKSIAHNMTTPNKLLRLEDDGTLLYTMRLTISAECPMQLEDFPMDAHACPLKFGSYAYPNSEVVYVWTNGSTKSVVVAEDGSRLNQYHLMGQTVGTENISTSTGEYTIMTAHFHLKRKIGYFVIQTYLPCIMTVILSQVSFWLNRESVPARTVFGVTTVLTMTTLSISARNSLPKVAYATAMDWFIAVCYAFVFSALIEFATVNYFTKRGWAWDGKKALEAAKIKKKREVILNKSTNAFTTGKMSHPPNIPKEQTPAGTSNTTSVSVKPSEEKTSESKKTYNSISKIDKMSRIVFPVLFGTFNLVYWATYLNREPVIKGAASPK
T1 sequence (P28472 26-473 partner): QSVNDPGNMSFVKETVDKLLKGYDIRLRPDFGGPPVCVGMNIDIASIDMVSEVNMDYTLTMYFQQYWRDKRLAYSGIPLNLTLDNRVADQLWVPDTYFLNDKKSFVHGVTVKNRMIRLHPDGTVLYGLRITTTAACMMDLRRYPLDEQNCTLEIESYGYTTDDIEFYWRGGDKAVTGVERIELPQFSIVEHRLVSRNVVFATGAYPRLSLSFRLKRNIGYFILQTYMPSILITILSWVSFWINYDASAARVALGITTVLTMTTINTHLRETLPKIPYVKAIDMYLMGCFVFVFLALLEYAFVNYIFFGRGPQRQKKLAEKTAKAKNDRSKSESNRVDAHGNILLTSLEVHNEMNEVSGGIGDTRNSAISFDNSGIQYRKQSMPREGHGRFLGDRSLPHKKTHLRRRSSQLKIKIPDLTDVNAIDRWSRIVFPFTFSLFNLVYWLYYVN
T1 sequence (P18507 40-467 limits assumed): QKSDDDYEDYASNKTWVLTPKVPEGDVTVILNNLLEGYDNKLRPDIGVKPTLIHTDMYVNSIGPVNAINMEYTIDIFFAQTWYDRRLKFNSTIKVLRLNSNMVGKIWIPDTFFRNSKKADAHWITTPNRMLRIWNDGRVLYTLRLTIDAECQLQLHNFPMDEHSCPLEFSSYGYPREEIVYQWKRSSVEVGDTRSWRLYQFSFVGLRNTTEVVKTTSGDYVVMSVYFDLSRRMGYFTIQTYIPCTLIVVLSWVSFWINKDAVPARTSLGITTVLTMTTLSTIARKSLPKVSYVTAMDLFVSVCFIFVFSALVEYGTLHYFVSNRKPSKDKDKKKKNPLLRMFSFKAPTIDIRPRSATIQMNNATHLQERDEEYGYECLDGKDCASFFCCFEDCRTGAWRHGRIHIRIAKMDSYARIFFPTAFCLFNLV
Method: (A) Binding activity of test compounds on GABAAR
Tissue culture and Membrane Preparation: The binding was performed on Ltk cells stably expressing GABAA receptors: α1β1γ2, α2β3γ2, α3β3γ2 and α5β3γ2 (provided by Merck Co., NJ, USA). Cells were seeded in 100 mm culture plates in DMEM/F12 medium containing 10% scrum and antibiotics in 5% CO2 and allowed to grow for 1-2 days. GABAAR expression was then induced by dexamethasone as follows: 0.5 μM for 1 day for α5 containing and 2 μM for 3 days for α1, α2 and α3 containing GABAARs. After induction, cells were collected by scraping into Dulbecco's Phosphate buffered saline (DPBS, pH 7.4, Invitrogen, Carlsbad, CA, USA) and centrifuged at 150×g for 10 min. The pellet was washed twice by re-suspension and centrifugation. The cell pellets from at least 5 different preps were combined, suspended in the binding assay buffer (50 mM KH2PO4; 1 mM EDTA; 0.2 M KCl, pH 7.4) and membranes prepared by sonication (3-5 times, 30 sec) using Branson Sonifier 150 (G. Heinmann, Germany). Protein content was determined using BCA assay (Bio-Rad Labs, Reinach, Switzerland) with Bovine Serum Albumin (Sigma Aldrich, St. Louis, MO, USA) as the standard. Aliquots were prepared and stored at −20° C. for further use in binding assays.
Ligand Binding: Saturation binding curves were obtained by incubating membranes with increasing concentrations (0.01-8 nM) of [^3H]Rol5-1788 (Flumazepil, 75-85 Ci/mmol, PerkinElmer, MA, USA), with nonspecific binding measured in the presence of 10 μM diazepam.
All binding assays were performed for 1 h at 4° C. in assay buffer. The total assay volume was 0.5 ml containing 0.2 mg/ml protein for α5 and 0.4 mg/ml for α1, α2, and α3 containing GABAAR membranes. Incubations were terminated by filtration through GF/B filters using a 24-Cell Harvestor (Brandel, Gaithersburg, MD, USA) followed by 3 washes with ice-cold assay buffer. […] Next day, radioactivity was obtained using a scintillation counter (Beckman Coulter, Brea, CA, USA). […]

aged-impaired (AI) rats = experiment: Radial Arm Maze (RAM) behavioral task, spatial memory retention; format: in vivo, rat; settings: two-hour delay
Method: The effects of methyl 3,5-diphenylpyridazine-4-carboxylate on the in vivo spatial memory retention of aged-impaired (AI) rats were assessed in a Radial Arm Maze (RAM) behavioral task using vehicle control and four different dosage levels of methyl 3,5-diphenylpyridazine-4-carboxylate (0.1 mg/kg, 0.3 mg/kg, 1 mg/kg and 3 mg/kg, ip). RAM behavioral tasks were performed on eight AI rats. All five treatment conditions (vehicle and four dosage levels) were tested on all eight rats.
The RAM apparatus used consisted of eight equidistantly-spaced arms. An elevated maze arm (7 cm width×75 cm length) projected from each facet of an octagonal center platform (30 cm diameter, 51.5 cm height). Clear side walls on the arms were 10 cm high and were angled at 65° to form a trough. A food well (4 cm diameter, 2 cm deep) was located at the distal end of each arm. Froot Loops™ (Kellogg Company) were used as rewards. Blocks constructed of Plexiglas™ (30 cm height×12 cm width) could be positioned to prevent entry to any arm. Numerous extra maze cues surrounding the apparatus were also provided.
The AI rats were initially subjected to a pre-training test (Chappell et al. Neuropharmacology 37: 481-487, 1998). The pre-training test consisted of a habituation phase (4 days), a training phase on the standard win-shift task (18 days) and another training phase (14 days) in which a brief delay was imposed between presentation of a subset of arms designated by the experimenter (e.g., 5 arms available and 3 arms blocked) and completion of the eight-arm win-shift task (i.e., with all eight arms available).
In the habituation phase, rats were familiarized to the maze for an 8-minute session on four consecutive days. In each of these sessions, food rewards were scattered on the RAM, initially on the center platform and arms and then progressively confined to the arms. After this habituation phase, a standard training protocol was used, in which a food pellet was located at the end of each arm. Rats received one trial each day for 18 days. Each daily trial terminated when all eight food pellets had been obtained or when either 16 choices were made or 15 minutes had elapsed. After completion of this training phase, a second training phase was carried out in which the memory demand was increased by imposing a brief delay during the trial. At the beginning of each trial, three arms of the eight-arm maze were blocked. Rats were allowed to obtain food on the five arms to which access was permitted during this initial “information phase” of the trial. Rats were then removed from the maze for 60 seconds, during which time the barriers on the maze were removed, thus allowing access to all eight arms. […]

GABAA α5 receptor = target: T2, GABAA α5 receptor (Rattus norvegicus, UniProt P18508+P19969); experiment: GABAA α5 receptor occupancy with Ro 15-4513 tracer (hippocampus vs cerebellum); format: in vivo; settings: for % RO (L-655,708 Method): young Long Evans rats
T2 construct: from tissue; host or cells: rat brain in vivo; hippocampus versus cerebellum
T2 sequence (P19969 32-464 limits assumed): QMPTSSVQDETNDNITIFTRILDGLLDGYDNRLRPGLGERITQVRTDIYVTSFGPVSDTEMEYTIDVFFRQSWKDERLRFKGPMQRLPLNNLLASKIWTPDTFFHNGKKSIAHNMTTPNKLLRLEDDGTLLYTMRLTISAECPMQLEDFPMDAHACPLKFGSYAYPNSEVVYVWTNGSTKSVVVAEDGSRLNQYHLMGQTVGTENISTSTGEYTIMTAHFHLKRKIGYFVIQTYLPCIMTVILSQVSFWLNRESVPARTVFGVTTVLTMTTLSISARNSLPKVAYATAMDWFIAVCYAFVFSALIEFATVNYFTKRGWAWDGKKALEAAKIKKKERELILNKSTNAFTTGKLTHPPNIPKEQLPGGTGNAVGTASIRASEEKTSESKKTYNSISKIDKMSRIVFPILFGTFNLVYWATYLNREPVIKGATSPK
T2 sequence (P18508 39-466): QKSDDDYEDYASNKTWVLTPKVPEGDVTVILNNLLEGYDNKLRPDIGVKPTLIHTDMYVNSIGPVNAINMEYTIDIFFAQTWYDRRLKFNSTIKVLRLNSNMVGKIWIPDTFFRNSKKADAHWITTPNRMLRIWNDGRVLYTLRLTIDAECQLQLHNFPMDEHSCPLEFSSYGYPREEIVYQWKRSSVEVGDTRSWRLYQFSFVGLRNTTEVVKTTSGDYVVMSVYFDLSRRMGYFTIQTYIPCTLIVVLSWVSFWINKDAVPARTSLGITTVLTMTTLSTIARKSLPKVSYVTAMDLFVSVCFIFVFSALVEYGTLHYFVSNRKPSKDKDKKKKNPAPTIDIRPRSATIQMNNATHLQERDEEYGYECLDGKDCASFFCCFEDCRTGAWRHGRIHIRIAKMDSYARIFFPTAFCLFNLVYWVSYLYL
Source text: (§1) Food and water were available ad libitum.

[1] = format: in vivo, rat; settings: for Hippocampus exposure / Plasma exposure / Young Hippocampus exposure / Young Plasma exposure: young Long Evans rats; for Aged Hippocampus exposure / Aged Plasma exposure: aged Long Evans rats
Method: as §1
For plasma exposures, blood samples were centrifuged at 14000 rpm for 16 minutes. After centrifuging, 50 ul of supernatant (plasma) from each sample was added to 200 μl of acetonitrile plus 0.1% formic acid. […] Samples were sonicated for 5 minutes in an ultrasonic water bath, followed by centrifugation for 30 minutes, at 16000 RPM. 100 ul of supernatant was removed from each sample vial and placed in a new glass auto sample vial, followed by the addition of 300 μl of sterile water (pH 6.5).
Additional studies were conducted in aged Long-Evans rats in order to determine the exposures at the behaviorally relevant doses in the cognition studies. Exposure in young Long-Evans rats was also determined to bridge with the receptor occupancy studies that were conducted in young Long-Evans rats. Exposures in young and aged Long-Evans rats were relatively similar (Table 4, FIG. 4).

α5-containing GABAA R = target: T3, α5-containing GABAA R (Homo sapiens, UniProt P18507+P31644); settings: EC20; cited from earlier work
T3 sequence (P31644 32-462): T1 sequence (P31644 32-462)
T3 sequence (P28472 26-473 partner): T1 sequence (P28472 26-473 partner)
T3 sequence (P18507 40-467 limits assumed): T1 sequence (P18507 40-467 limits assumed)

α5β2γ2 subtype GABAAR = target: T4, α5β2γ2 subtype GABAAR (Homo sapiens, UniProt P18507+P31644); experiment: Positive allosteric modulator activity: potentiation of EC20 GABA current in oocytes; format: cell-based; settings: read-out: GABA α5 Functional Data (potentiation), @ 100 nM, reported as ranges
T4 construct: expressed in transfected cells
T4 sequence (P31644 32-462): T1 sequence (P31644 32-462)
T4 sequence (P47870 25-512 partner limits assumed): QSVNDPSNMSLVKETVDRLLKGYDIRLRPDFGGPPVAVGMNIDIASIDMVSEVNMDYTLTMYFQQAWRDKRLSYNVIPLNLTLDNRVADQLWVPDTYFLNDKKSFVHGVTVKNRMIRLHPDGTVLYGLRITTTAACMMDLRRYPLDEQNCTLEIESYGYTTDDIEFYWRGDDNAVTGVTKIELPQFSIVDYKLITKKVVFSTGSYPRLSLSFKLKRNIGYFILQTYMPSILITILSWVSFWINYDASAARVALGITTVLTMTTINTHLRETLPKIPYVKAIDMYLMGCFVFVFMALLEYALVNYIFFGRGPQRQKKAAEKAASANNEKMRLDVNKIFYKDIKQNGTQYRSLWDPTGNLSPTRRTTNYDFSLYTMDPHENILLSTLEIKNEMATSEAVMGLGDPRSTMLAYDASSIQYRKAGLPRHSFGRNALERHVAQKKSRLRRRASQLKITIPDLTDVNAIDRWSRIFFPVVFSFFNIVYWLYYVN
T4 sequence (P18507 40-467 limits assumed): T1 sequence (P18507 40-467 limits assumed)
Outline: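 Xenopus oocytes injected with 1 ng α5:β2:γ2 cDNA (1:1:10 by weight) and recorded on day 2 by two-electrode voltage clamp under MBS superfusion. Potentiation (%) = Itest/IGABA at EC20 GABA; each oocyte used for one concentration only.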

## C#Cc1ccc2c(c1)-n1nnc(COC)c1Cc1c(C3=N[C@@H](C(C)C)CO3)ncn1-2 [Compound 384]
α5β3γ2 GABAA receptors
  Ki: 100 to 1000 nM

## COCc1nnc2n1Cc1c(-c3ncco3)ncn1-c1cc(Cl)ccc1-2 [Compound 458]
α5β3γ2 GABAA receptors; reported as ranges
  Ki: > 1000 nM

## COC(=O)c1c(-c2ccccc2)cnnc1-c1ccccc1 [methyl 3,5-diphenylpyridazine-4-carboxylate]
aged-impaired (AI) rats; 3 mg/kg ip
  average no. of errors ± SEM, retention test: 1.31±0.40
aged-impaired (AI) rats; 3 mg/kg, t(7)=4.233, p=0.004
  memory performance relative to vehicle control: significantly improved memory performance
GABAA α5 receptor; 0.01 mg/kg i.v.
  % RO (L-655,708 Method): 19.2%
GABAA α5 receptor; 0.1 mg/kg i.v.
  % RO (L-655,708 Method): 16.4%
GABAA α5 receptor; 1 mg/kg i.v.
  % RO (L-655,708 Method): 38.5%
GABAA α5 receptor; 0.01-10 mg/kg, i.v.
  effect on Ro 15-4513 binding in hippocampus: dose-dependently reduced; also recorded: blocked
  effect on Ro 15-4513 levels (binding) in cerebellum: without affecting; also recorded: did not affect
GABAA α5 receptor; at exposures behaviorally active in aged-impaired rats (FIG. 4)
  GABAA α5 receptors occupied: about 32%
GABAA α5 receptor; rat, iv, 10 mg/kg
  receptor occupancy at 10 mg/kg: > 90%
GABAA α5 receptor; rat, iv, ratio method
  ED50: 1.8 mg/kg
[1]; 0.01 mg/kg i.v.
  Hippocampus exposure: BQL
  Plasma exposure: BQL
[1]; 0.1 mg/kg i.v.
  Plasma exposure: BQL
[1]; 1 mg/kg i.v.
  Hippocampus exposure: 180.0 ng/g
[1]; 1 mg/kg ip
  Aged Hippocampus exposure: 38.8 ng/g
  Aged Plasma exposure: 45.2 ng/mL
  Young Hippocampus exposure: 25.9 ng/g
  Young Plasma exposure: 20.0 ng/mL
[1]; 3 mg/kg ip
  Aged Hippocampus exposure: 177.5 ng/g
  Aged Plasma exposure: 196 ng/mL
  Young Hippocampus exposure: 129.1 ng/g
  Young Plasma exposure: 132.9 ng/mL
[1]; Long Evans, rat, in vivo
  brain/plasma ratios: > 1
[1]; dose from 0.1 to 1 mg/kg, i.v.
  increase in hippocampal exposure: 12 fold
[1]; dose from 1 to 10 mg/kg, i.v.
  increase in hippocampal exposure: ~5 fold
  increase in plasma exposure: 12 fold
α5-containing GABAA R
  α5 in vitro efficacy: +27

## COC1C=C2C(=CC1)n1cnc(-c3noc(C(C)C)n3)c1Cn1c(COc3ccccc3Cl)nnc12 (stereo not shown) [Compound 175]
α5β3γ2 GABAA receptors
  Ki: < 100 nM
α5β2γ2 subtype GABAAR
  activation at 0.1 µM: 20 to 50%

— US12528819B2 (priority 2016, dated 2026)
